# How the values were obtained:
# Type in all cases: functional
# KM12 [1] = assay: Growth inhibition of Homo sapiens (human) KM12 cells at 10 uM after 48 hr by SRB assay; settings: KM12, 48 h, read-out: GI
# HCC 2998 [2] = assay: Anticancer activity against Homo sapiens (human) HCC2998 cells after 48 hr by SRB assay; settings: HCC 2998, 48 h; for CC50: read-out: LC50 (the source's name)
# Malme-3M = assay: Growth inhibition of Homo sapiens (human) MALME-3M cells at 10 uM after 48 hr by SRB assay; settings: read-out: GI
# RPMI-8226 = assay: Anticancer activity against Homo sapiens (human) RPMI8226 cells after 48 hr by SRB assay; settings: RPMI-8226, 48 h; for CC50: read-out: LC50 (the source's name)
# HCT-116 = assay: Anticancer activity against Homo sapiens (human) HCT116 cells after 48 hr by SRB assay; settings: HCT-116, 48 h; for CC50: read-out: LC50 (the source's name)
# SF-268 = assay: Anticancer activity against Homo sapiens (human) SF268 cells after 48 hr by SRB assay; settings: SF-268, 48 h; for CC50: read-out: LC50 (the source's name)
# HL-60(TB) = assay: Anticancer activity against Homo sapiens (human) HL-60(TB) cells after 48 hr by SRB assay; settings: HL-60, 48 h; for CC50: read-out: LC50 (the source's name)
# NCI-H460 [3] = assay: Anticancer activity against Homo sapiens (human) NCI-H460 cells after 48 hr by SRB assay; settings: NCI-H460, 48 h; for CC50: read-out: LC50 (the source's name)
# SNB-19 = assay: Anticancer activity against Homo sapiens (human) SNB19 cells after 48 hr by SRB assay; settings: SNB-19, 48 h; for CC50: read-out: LC50 (the source's name)
# OVCAR-8 = assay: Anticancer activity against Homo sapiens (human) OVCAR8 cells after 48 hr by SRB assay; settings: OVCAR-8, 48 h
# U-251 = assay: Anticancer activity against Homo sapiens (human) U251 cells after 48 hr by SRB assay; settings: U-251, 48 h; for CC50: read-out: LC50 (the source's name)
# HT-29 = assay: Anticancer activity against Homo sapiens (human) HT-29 cells after 48 hr by SRB assay; settings: HT-29, 48 h; for CC50: read-out: LC50 (the source's name)
# 786-0 = assay: Growth inhibition of Homo sapiens (human) 786-0 cells at 10 uM after 48 hr by SRB assay; settings: 786-0, 48 h, read-out: GI
# BT-549 = assay: Anticancer activity against Homo sapiens (human) BT549 cells after 48 hr by SRB assay; settings: BT-549, 48 h; for CC50: read-out: LC50 (the source's name)
# MDA-MB-231 = assay: Anticancer activity against Homo sapiens (human) MDA-MB-231/ATCC cells after 48 hr by SRB assay; settings: MDA-MB-231, 48 h; for CC50: read-out: LC50 (the source's name)
# KM12 [4] = assay: Anticancer activity against Homo sapiens (human) KM12 cells after 48 hr by SRB assay; settings: KM12, 48 h; for CC50: read-out: LC50 (the source's name)
# UACC-62 [5] = assay: Growth inhibition of Homo sapiens (human) UACC62 cells at 10 uM after 48 hr by SRB assay; settings: UACC-62, 48 h, read-out: GI
# RXF 393 = assay: Growth inhibition of Homo sapiens (human) RXF393 cells at 10 uM after 48 hr by SRB assay; settings: RXF 393, 48 h, read-out: GI
# UACC-62 [6] = assay: Anticancer activity against Homo sapiens (human) UACC62 cells after 48 hr by SRB assay; settings: UACC-62, 48 h
# MDA-MB-435 = assay: Growth inhibition of Homo sapiens (human) MDA-MB-435 cells at 10 uM after 48 hr by SRB assay; settings: MDA-MB-435, 48 h, read-out: GI
# MOLT-4 = assay: Growth inhibition of Homo sapiens (human) MOLT4 cells at 10 uM after 48 hr by SRB assay; settings: MOLT-4, 48 h, read-out: GI
# NCI-H322M = assay: Anticancer activity against Homo sapiens (human) NCI-H322M cells after 48 hr by SRB assay; settings: for CC50: read-out: LC50 (the source's name)
# NCI-H522 = assay: Anticancer activity against Homo sapiens (human) NCI-H522 cells after 48 hr by SRB assay; settings: NCI-H522, 48 h; for CC50: read-out: LC50 (the source's name)
# OVCAR-4 = assay: Anticancer activity against Homo sapiens (human) OVCAR4 cells after 48 hr by SRB assay; settings: OVCAR-4, 48 h; for CC50: read-out: LC50 (the source's name)
# TK-10 = assay: Anticancer activity against Homo sapiens (human) TK10 cells after 48 hr by SRB assay; settings: TK-10, 48 h; for CC50: read-out: LC50 (the source's name)
# SNB-75 = assay: Anticancer activity against Homo sapiens (human) SNB75 cells after 48 hr by SRB assay; settings: SNB-75, 48 h; for CC50: read-out: LC50 (the source's name)
# SF-295 [7] = assay: Anticancer activity against Homo sapiens (human) SF295 cells after 48 hr by SRB assay; settings: SF-295, 48 h; for CC50: read-out: LC50 (the source's name)
# ACHN = assay: Anticancer activity against Homo sapiens (human) ACHN cells after 48 hr by SRB assay; settings: for CC50: read-out: LC50 (the source's name)
# SF-295 [8] = assay: Growth inhibition of Homo sapiens (human) SF295 cells at 10 uM after 48 hr by SRB assay; settings: SF-295, 48 h, read-out: GI
# NCI-H460 [9] = assay: Growth inhibition of Homo sapiens (human) NCI-H460 cells at 10 uM after 48 hr by SRB assay; settings: NCI-H460, 48 h, read-out: GI
# HCC 2998 [10] = assay: Growth inhibition of Homo sapiens (human) HCC2998 cells at 10 uM after 48 hr by SRB assay; settings: HCC 2998, 48 h, read-out: GI
# T47D = assay: Growth inhibition of Homo sapiens (human) T47D cells at 10 uM after 48 hr by SRB assay; settings: read-out: GI
smiles,measurement,setting,value
COc1ccc(OC)c(/C=C/c2nnc(S)n2-c2ccc(Cl)cc2)c1,inhibition of growth at 10 µM,KM12 [1],59.1%
same,GI50,HCC 2998 [2],13.3 µM
same,TGI,HCC 2998 [2],> 100 µM
same,CC50,HCC 2998 [2],> 100 µM
same,inhibition of growth at 10 µM,Malme-3M,70.2%
same,GI50,RPMI-8226,5.22 µM
same,TGI,RPMI-8226,> 100 µM
same,CC50,RPMI-8226,> 100 µM
same,GI50,HCT-116,4.05 µM
same,TGI,HCT-116,> 100 µM
same,CC50,HCT-116,> 100 µM
same,GI50,SF-268,17.5 µM
same,TGI,SF-268,> 100 µM
same,CC50,SF-268,> 100 µM
same,GI50,HL-60(TB),3.57 µM
same,TGI,HL-60(TB),> 100 µM
same,CC50,HL-60(TB),> 100 µM
same,GI50,NCI-H460 [3],4.53 µM
same,TGI,NCI-H460 [3],> 100 µM
same,CC50,NCI-H460 [3],> 100 µM
same,GI50,SNB-19,12.7 µM
same,TGI,SNB-19,> 100 µM
same,CC50,SNB-19,> 100 µM
same,GI50,OVCAR-8,28.4 µM
same,LC50,OVCAR-8,> 100 µM
same,TGI,OVCAR-8,> 100 µM
same,GI50,U-251,6.88 µM
same,TGI,U-251,> 100 µM
same,CC50,U-251,> 100 µM
same,GI50,HT-29,3.67 µM
same,TGI,HT-29,> 100 µM
same,CC50,HT-29,> 100 µM
same,inhibition of growth at 10 µM,786-0,41.1%
same,GI50,BT-549,9.38 µM
same,TGI,BT-549,> 100 µM
same,CC50,BT-549,> 100 µM
same,GI50,MDA-MB-231,14.5 µM
same,TGI,MDA-MB-231,> 100 µM
same,CC50,MDA-MB-231,> 100 µM
same,GI50,KM12 [4],4.02 µM
same,TGI,KM12 [4],> 100 µM
same,CC50,KM12 [4],> 100 µM
same,inhibition of growth at 10 µM,UACC-62 [5],57.2%
same,inhibition of growth at 10 µM,RXF 393,48.1%
same,GI50,UACC-62 [6],3.11 µM
same,LC50,UACC-62 [6],> 100 µM
same,TGI,UACC-62 [6],> 100 µM
same,inhibition of growth at 10 µM,MDA-MB-435,110%
same,inhibition of growth at 10 µM,MOLT-4,47.2%
same,GI50,NCI-H322M,26.9 µM
same,TGI,NCI-H322M,> 100 µM
same,CC50,NCI-H322M,> 100 µM
same,GI50,NCI-H522,4.07 µM
same,TGI,NCI-H522,> 100 µM
same,CC50,NCI-H522,> 100 µM
same,GI50,OVCAR-4,20.6 µM
same,TGI,OVCAR-4,> 100 µM
same,CC50,OVCAR-4,> 100 µM
same,GI50,TK-10,25.8 µM
same,TGI,TK-10,> 100 µM
same,CC50,TK-10,> 100 µM
same,GI50,SNB-75,2.85 µM
same,TGI,SNB-75,> 100 µM
same,CC50,SNB-75,> 100 µM
same,GI50,SF-295 [7],4.16 µM
same,TGI,SF-295 [7],> 100 µM
same,CC50,SF-295 [7],> 100 µM
same,GI50,ACHN,23.8 µM
same,TGI,ACHN,> 100 µM
same,CC50,ACHN,> 100 µM
same,inhibition of growth at 10 µM,SF-295 [8],68.8%
same,inhibition of growth at 10 µM,NCI-H460 [9],61.1%
same,inhibition of growth at 10 µM,HCC 2998 [10],54.4%
COc1ccc(OC)c(/C=C/c2nnc(Nc3ccc(Cl)cc3)o2)c1,GI50,HCC 2998 [2],> 100 µM
same,TGI,HCC 2998 [2],> 100 µM
same,CC50,HCC 2998 [2],> 100 µM
same,inhibition of growth at 10 µM,Malme-3M,58.5%
same,GI50,RPMI-8226,> 100 µM
same,TGI,RPMI-8226,> 100 µM
same,CC50,RPMI-8226,> 100 µM
same,GI50,HCT-116,2.97 µM
same,TGI,HCT-116,13.1 µM
same,CC50,HCT-116,> 100 µM
same,GI50,SF-268,7.6 µM
same,TGI,SF-268,37.9 µM
same,CC50,SF-268,> 100 µM
same,GI50,HL-60(TB),> 100 µM
same,TGI,HL-60(TB),> 100 µM
same,CC50,HL-60(TB),> 100 µM
same,GI50,NCI-H460 [3],3.77 µM
same,TGI,NCI-H460 [3],> 100 µM
same,CC50,NCI-H460 [3],> 100 µM
same,GI50,SNB-19,13.8 µM
same,TGI,SNB-19,> 100 µM
same,CC50,SNB-19,> 100 µM
same,GI50,OVCAR-8,4.91 µM
same,LC50,OVCAR-8,76.4 µM
same,TGI,OVCAR-8,21 µM
same,GI50,U-251,3.81 µM
same,TGI,U-251,14.3 µM
same,CC50,U-251,47.6 µM
same,GI50,HT-29,9.44 µM
same,TGI,HT-29,28.3 µM
same,CC50,HT-29,82.1 µM
same,inhibition of growth at 10 µM,T47D,105%
same,inhibition of growth at 10 µM,786-0,72.1%
same,TGI,BT-549,> 100 µM
same,CC50,BT-549,> 100 µM
same,GI50,MDA-MB-231,5.23 µM
same,TGI,MDA-MB-231,53.1 µM
same,CC50,MDA-MB-231,> 100 µM
same,GI50,KM12 [4],17.4 µM
same,TGI,KM12 [4],> 100 µM
same,CC50,KM12 [4],> 100 µM
same,inhibition of growth at 10 µM,RXF 393,43.7%
same,GI50,UACC-62 [6],16.2 µM
same,LC50,UACC-62 [6],> 100 µM
same,TGI,UACC-62 [6],> 100 µM
same,GI50,NCI-H322M,30.5 µM
same,TGI,NCI-H322M,> 100 µM
same,CC50,NCI-H322M,> 100 µM
same,GI50,NCI-H522,7.13 µM
same,TGI,NCI-H522,83.7 µM
same,CC50,NCI-H522,> 100 µM
same,GI50,OVCAR-4,2.44 µM
same,TGI,OVCAR-4,6.76 µM
same,CC50,OVCAR-4,> 100 µM
same,GI50,TK-10,7.4 µM
same,TGI,TK-10,83.2 µM
same,CC50,TK-10,> 100 µM
same,GI50,SNB-75,2.26 µM
same,TGI,SNB-75,7.94 µM
same,CC50,SNB-75,> 100 µM
same,GI50,SF-295 [7],6.15 µM
same,TGI,SF-295 [7],64.5 µM
same,CC50,SF-295 [7],> 100 µM
same,GI50,ACHN,3.29 µM
same,TGI,ACHN,19.9 µM
same,CC50,ACHN,> 100 µM
same,inhibition of growth at 10 µM,SF-295 [8],53.1%
same,inhibition of growth at 10 µM,NCI-H460 [9],84.5%
same,inhibition of growth at 10 µM,HCC 2998 [10],44.6%
